Experiment [1] concerns the target T1, Protein disulfide isomerase (PDI) (Homo sapiens, UniProt P07237, I289A).
T1 construct: gene P4HB; isolated b′x domain; full-length PDI
T1 sequence (P07237 236-367 I289A limits assumed): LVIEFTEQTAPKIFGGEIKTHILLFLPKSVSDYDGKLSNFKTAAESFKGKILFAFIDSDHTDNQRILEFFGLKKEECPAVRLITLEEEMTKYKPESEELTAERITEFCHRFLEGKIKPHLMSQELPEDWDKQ
Kind of experiment: ANS fluorescence binding (λex […] nm), displaced by bepristats, absent with I272A.

The target in experiment [2] is T2, Protein disulfide isomerase (PDI) (Homo sapiens, UniProt P07237). The experiment is described as follows: insulin turbidimetric and di-eosin-GSSG reductase assays. The experiment is classed as biochemical. Set-up: gene P4HB; full-length PDI.
T2 sequence (P07237 18-508): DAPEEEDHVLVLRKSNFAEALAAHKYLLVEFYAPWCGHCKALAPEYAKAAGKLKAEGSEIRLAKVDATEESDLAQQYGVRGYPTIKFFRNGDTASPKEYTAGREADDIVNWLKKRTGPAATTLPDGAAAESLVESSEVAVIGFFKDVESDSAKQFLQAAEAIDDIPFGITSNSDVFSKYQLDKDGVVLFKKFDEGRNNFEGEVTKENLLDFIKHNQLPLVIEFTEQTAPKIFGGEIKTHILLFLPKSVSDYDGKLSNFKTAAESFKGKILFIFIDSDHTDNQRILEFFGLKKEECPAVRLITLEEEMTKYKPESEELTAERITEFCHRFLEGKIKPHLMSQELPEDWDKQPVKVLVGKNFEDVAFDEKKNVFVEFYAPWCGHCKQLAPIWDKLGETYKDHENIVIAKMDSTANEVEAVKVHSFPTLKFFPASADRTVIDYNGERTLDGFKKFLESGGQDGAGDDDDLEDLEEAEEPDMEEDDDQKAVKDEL
The target in experiment [3] is T2, Protein disulfide isomerase (PDI). Kind of experiment: insulin turbidimetric reductase assay; ANS displacement from PDI and b′x, intrinsic Trp fluorescence, domain mapping. Format: biochemical. More on the design: gene P4HB; full-length PDI; also abb′ (residues 1–331), b′xa′ (residues 219–462) and b′x.

For the compound `O=S(=O)(O)c1cccc2cccc(Nc3ccccc3)c12` [ANS, 1-anilinonaphthalene-8-sulfonic acid], the “ANS fluorescence binding (λex 370 nm), displaced by bepristats, absent with I272” value in experiment [1] was “ANS fluorescence was prominent on incubation with the isolated b′x domain and weak on incubation with isolated a, a′”. `C[C@@H]1O[C@@H](OC[C@H]2O[C@@H](Oc3c(-c4ccc(O)c(O)c4)oc4cc(O)cc(O)c4c3=O)[C@H](O)[C@@H](O)[C@@H]2O)[C@H](O)[C@H](O)[C@H]1O` [Q-3-R, quercetin-3-rutinoside]: the “insulin turbidimetric and di-eosin-GSSG reductase assays” value in experiment [2] is recorded as “these other inhibitors all blocked PDI-mediated cleavage of di-eosin-GSSG when used at concentrations required to inhibit activity”. Broadly, the IC50 is the point on the concentration scale where inhibition reaches its midpoint. High values mean a need for much substance, low ones inhibition by little substance. `CCN(C)C(=O)C1(CCOc2ccccc2)CCN(Cc2ccc(O)c(Cl)c2)CC1` [bepristat 1a] gave an IC50 in experiment [3] of roughly 700 nM. Turning to bepristat 2a, the IC50 in experiment [3] is roughly 1200 nM.

These data come from article PMC5013553, “A substrate-driven allosteric switch that enhances PDI catalytic activity” (Nature Communications, 2016).
